{"source": "paper PMC11364845", "about": "(Scientific Reports, 2024)", "key": {"[1]": {"system": "prostate tumor-bearing TRAMP mice", "details": "30 min dynamic PET, n = 3/group"}, "[2]": {"details": "cited from earlier work"}}, "data": [{"smiles": "OC[C@H]1OC(O)[C@H](F)[C@@H](O)[C@@H]1O", "note": "(stereo partly drawn) [^18F-FDG, ^18F-fluorodeoxyglucose]", "values": [{"measurement": "Time-dependent blood distribution by dynamic PET: JV versus RO injection", "setting": "[1]", "value": "consistent circulation"}, {"measurement": "Time to peak in circulation and distribute to half its concentration", "setting": "[2]; after cardiac administration", "value": "≤ 5", "unit": "s"}, {"measurement": "Time to reach a plateau in tissues", "setting": "[2]", "value": "≤ 30", "unit": "min"}]}]}
